Data on four compounds can be found in patent publication USRE46943E1, “Radioprotector compounds and methods” (PETER MACCALLUM CANCER INSTITUTE, priority 2010, dated 2018).

Assay [1] deals with transformed human keratinocyte cell line (FEP 1811). Briefly: Clonogenic survival cell culture assay for cytotoxicity. Particulars: Homo sapiens, Keratinocyte, light or radiation study; un-irradiated keratinocytes, one hour drug exposure, colonies counted after eight days; read-out: C50 (concentration of radioprotector that results in 50% clonogenic survival). Format: cell-based. Put shortly:
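Mid-log monolayers exposed to test drug for 1 h, then pronase-dispersed and plated; colonies counted after 8 days. For […], irradiation at 0.6 Gy per minute began 30 min after drug addition, with total drug exposure held at 60 min before plating for clonogenic survival.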

The subject of assay [2] is oral mucosa of mouse tongue. Briefly: Topical radioprotection of the oral mucosa of mouse tongue (mucosal ulceration endpoint). Type of assay: in vivo, mice of the inbred C3H/Neu strain. The method, then: Mice of the inbred C3H/Neu strain were sourced from a breeding colony at the Medical Faculty Carl Gustav Cams, Dresden, Germany. The animals were bred and housed under specified pathogen-free conditions. Housing was under controlled conditions of humidity (30-50%) and temperature (21° C.-24° C.). An automated light programme regulated a 12/12-hour light/dark rhythm with lights on from 6 am to 6 pm. The mice were kept in size 3 Macrolon cages, maximum of 10 per cage, on sawdust bedding. Standard mouse diet (Altromin 1326, Altrogge) and filtered city tap water from standard perspex drinking bottles were provided ad libitum.
A 3 mm×3 mm field at the middle of the lower surface of the mouse tongue was irradiated with 25 kV x-rays from a Darpac 150-MC device (Forward Raytech Ltd, Swinburne, UK) operated with a tube current of 20 milliamps yielding a dose rate of 3.78 Gy per minute and a focus-skin distance of 15 cm. Anaesthetised mice (sodium pentabarbitone; 60 mg per kg) were placed in a supine position in the central cylindrical hole (diameter 25 mm) of a pre-warmed aluminium block (approximately 35° C.). The tongue was guided through a hole (diameter 3 mm) in roof of the block by use of forceps, and the upper surface of the tongue was fixed to the outer surface of the block with double-sided adhesive tape. The head was supported by a polystyrene wedge to avoid traction of the base of the tongue and consequent hypoxia. The collimator was a 1 mm thick aluminium plate with a 3×3 mm^2 window positioned centrally over the lower surface of the tongue. Groups of 10 mice, were irradiated with 5 different doses in the range of 10-20 Gy.
One hour prior to irradiation, 10 microlitres of formulation was applied to the lower surface of the tongue of anaesthetised mice using a displacement micropipette. Thirty minutes later, a second 10 microlitre aliquot of the formulation was applied and the mice irradiated thirty minutes later.
Stock solutions of the appropriate drug in propylene glycol or water were diluted with an aqueous solution of Poloxamer 407 gel (BASF Lutrol F 127) and/or a solution of hydroxypropyl cellulose (approx average MW 80,000; Aldrich cat no 435007) in propylene glycol and with water and/or propylene glycol, producing each of two formulations: • Formulation 1—gel, which contained 10 or 30 mM drug in 20% Poloxamer 407 and 1% hydroxylpropyl cellulose in 30% propylene glycol in water, and • Formulation 2—Liquid, which contained 10, 30 or 60 mM drug in propylene glycol […] of 2% hydroxypropyl cellulose. Scoring and Data Analysis
At various times after irradiation, the lower surface of the tongue of anaesthetised mice was examined daily. The quantal endpoint used was mucosal ulceration, corresponding to confluent mucositis RTOG/EORTC grade 3. The data plotted in the example figures is the percentage of a group of 10 mice in which the endpoint of mucosal ulceration was scored for at least 2 consecutive days. Radiation dose effect curves were generated with a single parameter sigmoidal relationship (logistic function
[formula] using the Prism 5.0 curve-fitting programme to generate the ED50 value, which corresponds to the interpolated radiation dose at which 50% of the mice in the group reached the mucosal ulceration endpoint.

[3] abbreviates: 10 mM drug in Formulation 1, topical to tongue.
Where [4] appears, read: 10 mM drug in Formulation 1 vs vehicle.
Setting [5] is: 30 mM drug in Formulation 2, topical to tongue.
Where [6] appears, read: 30 mM drug in Formulation 2 vs vehicle.

For `CN1CCN(c2ccc3nc(-c4ccc5nc(-c6ccccn6)[nH]c5c4)[nH]c3c2)CC1` [Example 2, 2-(5′-(5″-(4′″-Methylpiperazin-1′″-yl)benzimidazol-2″-yl)benzimidazol-2′-yl)pyridine], in assay [1], the IC50 stood at 101 µM. The “ED50 (radiation dose at which 50% of the mice reached mucosal ulceration)” value in assay [2] (setting [3]) was determined as 14.4 Gy. For the same compound, the dose reduction factor in assay [2] (setting [4]) came out at 1.20.
Turning to `Cc1ccc(-c2nc3ccc(-c4nc5ccc(N6CCN(C)CC6)cc5[nH]4)cc3[nH]2)nc1` [Example 6, 5-Methyl-2-(5′-(5″-(4′″-methylpiperazin-1′″-yl)benzimidazol-2″-yl)benzimidazol-2′-yl)pyridine], in assay [1], the IC50 was determined as 58.4 µM. For the same compound, the “ED50 (radiation dose at which 50% of the mice reached mucosal ulceration)” value in assay [2] (setting [5]) amounted to 14.6 Gy. The compound further gave a dose reduction factor in assay [2] (setting [6]) of 1.13.
`c1ccc(-c2nc3ccc(-c4nc5ccc(N6CCOCC6)cc5[nH]4)cc3[nH]2)nc1` [Example 19, 2-(5′-(5″-Morpholinobenzimidazol-2″-yl)benzimidazol-2′-yl)pyridine]: the IC50 in assay [1] was determined as 150 µM. For the same compound, the entries for the “ED50 (radiation dose at which 50% of the mice reached mucosal ulceration)” value in assay [2] (setting [3]) and in assay [2] (setting [5]) were 14.3 Gy and 15.2 Gy, respectively. The dose reduction factor in assay [2] (setting [4]) amounted to 1.19; in assay [2] (setting [6]) it was 1.18.
Regarding `OC1CCN(c2ccc3nc(-c4ccc5nc(-c6cc7ccccc7cn6)[nH]c5c4)[nH]c3c2)CC1` [Example 23, 3-(5′-(5″-(4′″-Hydroxypiperidin-1′″-yl)benzimidazol-2″-yl)benzimidazol-2′-yl)isoquinoline], the IC50 in assay [1] stood at 589 µM. In addition, the “ED50 (radiation dose at which 50% of the mice reached mucosal ulceration)” value in assay [2] (60 mM drug in Formulation 3, topical to tongue) is recorded as 14.6 Gy. The dose reduction factor in assay [2] (60 mM drug in Formulation 3 vs blank formulation) turned out to be 1.13.
